Test results published in US11111249B2, “Heteroaryl-pyrazole derivative, and preparation method therefor and medical application thereof” (Jiangsu Hengrui Medicine Co., Ltd., priority 2017, dated 2021).
pIC50: −log10 of the molar value.

Assays:
CYP3A4 = biological target: T1, CYP3A4 (Homo sapiens, UniProt P08684); experiment: Inhibition of the midazolam metabolic site on human liver microsome CYP3A4; format: in vitro ADME; settings: human liver microsomes, midazolam substrate, 30 minutes
T1 construct: Human liver microsomes (Corning Gentest); tissue Corning Gentest; host or cells: human liver microsomes
Protocol: The enzymatic activity of the compound of the present application against the Midazolam metabolite site on human liver microsome CYP3A4 was determined by the following experimental method:
CYP probe substrate (15 μM Midazolam, SIGMA UC429) and positive control inhibitor (Ketoconazole, SIGMA K1003).
100 mM PBS buffer was configured, and 2.5 mg/mL microsome solution and 5 mM NADPH solution were prepared with this buffer, and the 5× concentration compound working solution was diluted with PBS (150, 50, 15, 5, 1.5, 0.15, 0.015, 0 μM). The 5× concentration of Ketoconazole working solution (150, 50, 15, 5, 1.5, 0.15, 0.015, 0 μM) was diluted with PBS. Midazolam working solution was diluted to a concentration of 15 μM with PBS.
20 μL each of 2.5 mg/mL microsome solution, 15 μM Midazolam working solution, MgCl2 solution and compound working solution (150, 50, 15, 5, 1.5, 0.15, 0.015, 0 μM, each concentration was setted differently reaction system) were taken and mixed evenly. The compound was replaced with the same concentration of Ketoconazole at the positive control group. At the same time, 5 mM NADPH solution was pre-incubated for 5 minutes at 37° C. After 5 minutes, 20 μL NADPH were added into the wells, and the reaction was started and incubated for 30 minutes. All samples were incubated for two samples. […]

hERG potassium channels = biological target: T2, hERG potassium channels (Homo sapiens, UniProt Q12809); experiment: Blocking effect on hERG potassium current, automatic patch-clamp, HEK293-hERG stable cell line; format: cell-based
T2 construct: expressed in transfected cells
Protocol: The blocking effect of the compound of the present application on hERG potassium current was tested using an automatic patch-clamp on a stable cell line transfected with hERG potassium channels.
The HEK293-hERG stable cell line was subcultured at a density of 1:4 in MEM/EBSS medium (10% FBS, 400 μg/mL G418, 1% MEM non-essential amino acid solution (100×), 1% sodium pyruvate solution) and cultured within 48-72 hours for automatic patch-clamp experiments. On the day of the experiment, the cells were digested with 0.25% trypsin, collected by centrifugation and resuspended with extracellular fluid (140 mM NaCl, 4 mM KCl, 1 mM MgCl2, 2 mM CaCl2, 5 mM MD glucose monohydrate, 10 mM Hepes, pH 7.4, 298 mOsmol) to give a cell suspension. […] The currents at each concentration of the compound and the blank control current were analyzed by HEAK Patchmaster, HEAK EPC 10 patch clamp amplifiers (Nanion) and Pathlinersoftware and data analysis software provided by Pathcontrol HTsoftware.
Blocking effect of the compound of the present application on hERG potassium current was determined by the above experimental method, and the IC50 values were as shown in Table 5.

T2 sequence (Q12809 whole entry): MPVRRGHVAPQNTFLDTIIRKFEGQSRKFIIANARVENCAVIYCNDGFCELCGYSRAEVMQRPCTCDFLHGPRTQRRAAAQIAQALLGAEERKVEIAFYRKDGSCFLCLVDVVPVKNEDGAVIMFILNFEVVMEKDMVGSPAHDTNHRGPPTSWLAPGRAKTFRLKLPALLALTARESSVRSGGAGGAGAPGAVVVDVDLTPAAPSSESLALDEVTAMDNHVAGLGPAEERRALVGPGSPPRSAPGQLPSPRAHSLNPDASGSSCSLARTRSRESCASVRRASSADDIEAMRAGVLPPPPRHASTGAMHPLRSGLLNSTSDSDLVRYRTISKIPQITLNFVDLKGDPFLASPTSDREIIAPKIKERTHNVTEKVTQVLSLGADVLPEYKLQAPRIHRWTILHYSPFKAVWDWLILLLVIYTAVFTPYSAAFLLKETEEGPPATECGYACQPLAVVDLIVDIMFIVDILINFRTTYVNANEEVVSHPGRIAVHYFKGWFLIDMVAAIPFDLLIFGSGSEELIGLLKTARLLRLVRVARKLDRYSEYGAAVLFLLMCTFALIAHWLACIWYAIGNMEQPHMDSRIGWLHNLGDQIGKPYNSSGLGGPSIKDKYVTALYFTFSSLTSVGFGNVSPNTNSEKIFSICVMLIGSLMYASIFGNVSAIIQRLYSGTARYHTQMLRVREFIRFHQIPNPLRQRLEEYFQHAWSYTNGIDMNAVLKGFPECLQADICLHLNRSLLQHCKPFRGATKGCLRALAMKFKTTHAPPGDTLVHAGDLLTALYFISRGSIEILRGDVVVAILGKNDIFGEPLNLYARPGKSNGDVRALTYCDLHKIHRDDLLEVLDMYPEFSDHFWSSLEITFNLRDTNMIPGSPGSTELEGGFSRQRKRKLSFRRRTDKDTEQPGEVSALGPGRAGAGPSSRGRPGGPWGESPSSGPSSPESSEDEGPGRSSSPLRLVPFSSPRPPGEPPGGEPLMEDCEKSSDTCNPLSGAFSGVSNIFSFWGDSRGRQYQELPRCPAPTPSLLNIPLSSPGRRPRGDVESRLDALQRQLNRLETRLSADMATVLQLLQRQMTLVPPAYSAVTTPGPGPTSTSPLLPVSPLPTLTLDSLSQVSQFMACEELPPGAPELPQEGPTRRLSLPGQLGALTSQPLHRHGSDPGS
T1 sequence (P08684 whole entry): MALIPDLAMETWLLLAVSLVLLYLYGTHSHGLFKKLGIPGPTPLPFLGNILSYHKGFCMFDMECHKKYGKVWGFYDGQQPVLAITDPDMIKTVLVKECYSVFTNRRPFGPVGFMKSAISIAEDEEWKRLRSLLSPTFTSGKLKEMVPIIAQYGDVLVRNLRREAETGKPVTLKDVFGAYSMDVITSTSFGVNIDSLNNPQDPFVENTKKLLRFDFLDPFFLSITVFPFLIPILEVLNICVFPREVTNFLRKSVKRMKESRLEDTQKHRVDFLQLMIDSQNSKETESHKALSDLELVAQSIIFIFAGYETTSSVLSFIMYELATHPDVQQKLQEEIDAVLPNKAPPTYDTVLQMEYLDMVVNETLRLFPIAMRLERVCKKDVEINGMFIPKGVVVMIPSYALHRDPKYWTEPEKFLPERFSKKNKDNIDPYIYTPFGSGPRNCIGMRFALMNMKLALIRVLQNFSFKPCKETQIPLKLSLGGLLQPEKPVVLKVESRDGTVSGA

| Structure (SMILES) | pIC50 (CYP3A4) | pIC50 (hERG potassium channels) |
| --- | --- | --- |
| CCCCOc1nc(N)c2[nH]nc(Cc3ccc(CN4CCCC4)cc3)c2n1 [Embodiment 1, 5-Butoxy-3-(4-(pyrrolidin-1-ylmethyl)benzyl)-1H-pyrazolo[4,3-d]pyrimidin-7-amine] | 4.78 | < 4.52 |
| CCCCOc1nc(N)c2[nH]cc(Cc3ccc(CN4CCCC4)cc3)c2n1 [Embodiment 21 of WO2016023511] | 5.99 | 5.44 |
